Data published in ChEMBL document CHEMBL1137450, “Dual serotonin transporter inhibitor/histamine H3 antagonists: development of rigidified H3 pharmacophores” (Bioorg Med Chem Lett, 2007).
Calls of active or inactive are those of the source. The calls are words filed in the database; no cut-off is given here.

How the values were obtained:
[1] = biological target: Sodium-dependent serotonin transporter (Homo sapiens, UniProt P31645); experiment: Binding affinity at human SERT
[2] = biological target: Sodium-dependent serotonin transporter (Rattus norvegicus, UniProt P31652); experiment: Binding affinity at rat SERT
Sequence of Sodium-dependent serotonin transporter (Rattus norvegicus, UniProt P31652) (P31652 whole entry): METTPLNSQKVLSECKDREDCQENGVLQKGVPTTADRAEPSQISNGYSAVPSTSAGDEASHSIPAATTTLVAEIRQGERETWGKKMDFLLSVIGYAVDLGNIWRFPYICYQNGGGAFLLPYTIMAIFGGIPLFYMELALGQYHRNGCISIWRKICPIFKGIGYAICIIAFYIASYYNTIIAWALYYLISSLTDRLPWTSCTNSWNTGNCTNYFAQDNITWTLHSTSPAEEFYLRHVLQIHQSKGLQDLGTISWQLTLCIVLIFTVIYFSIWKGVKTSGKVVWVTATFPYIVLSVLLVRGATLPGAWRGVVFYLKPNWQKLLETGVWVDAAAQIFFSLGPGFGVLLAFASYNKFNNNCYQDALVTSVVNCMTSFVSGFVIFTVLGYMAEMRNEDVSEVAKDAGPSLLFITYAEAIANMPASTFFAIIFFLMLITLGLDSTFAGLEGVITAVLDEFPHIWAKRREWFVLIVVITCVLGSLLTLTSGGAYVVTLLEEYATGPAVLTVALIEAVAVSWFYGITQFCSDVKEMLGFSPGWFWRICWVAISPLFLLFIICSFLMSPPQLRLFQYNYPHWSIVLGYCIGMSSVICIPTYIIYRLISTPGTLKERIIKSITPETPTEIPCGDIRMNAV

Histamine H3 receptor = Histamine H3 receptor (Homo sapiens, UniProt Q9Y5N1); experiment: Antagonistic activity at H3 receptor expressed in […] cells assessed as forskolin stimulated cyclic AMP accumulation by functional assay; type: cell-based, SK-N-MC; conditions: read-out: pA2 (converted)
Sequence of Histamine H3 receptor (Q9Y5N1 whole entry): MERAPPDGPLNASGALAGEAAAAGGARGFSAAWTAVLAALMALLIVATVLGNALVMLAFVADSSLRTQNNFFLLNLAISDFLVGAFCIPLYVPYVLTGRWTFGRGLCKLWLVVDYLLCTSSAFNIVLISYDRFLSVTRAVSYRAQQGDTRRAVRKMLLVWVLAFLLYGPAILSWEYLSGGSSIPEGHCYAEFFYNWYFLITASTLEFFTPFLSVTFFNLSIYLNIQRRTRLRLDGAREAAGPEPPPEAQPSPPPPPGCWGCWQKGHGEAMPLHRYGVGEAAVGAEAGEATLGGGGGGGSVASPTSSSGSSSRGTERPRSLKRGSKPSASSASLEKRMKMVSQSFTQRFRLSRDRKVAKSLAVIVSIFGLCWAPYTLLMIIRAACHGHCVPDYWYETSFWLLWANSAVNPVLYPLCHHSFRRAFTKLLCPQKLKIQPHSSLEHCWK

Mus musculus [3] = experiment: Effect on 5HTP induced mouse head twitch model at 10 mg/kg after 24 hrs; type: functional
Mus musculus [4] = experiment: Effect on 5HTP induced mouse head twitch model at 10 mg/kg after 1 hr; type: functional, organism-based; set-up: dose 10 mg/kg

Sequence of Sodium-dependent serotonin transporter (Homo sapiens, UniProt P31645) (P31645 whole entry): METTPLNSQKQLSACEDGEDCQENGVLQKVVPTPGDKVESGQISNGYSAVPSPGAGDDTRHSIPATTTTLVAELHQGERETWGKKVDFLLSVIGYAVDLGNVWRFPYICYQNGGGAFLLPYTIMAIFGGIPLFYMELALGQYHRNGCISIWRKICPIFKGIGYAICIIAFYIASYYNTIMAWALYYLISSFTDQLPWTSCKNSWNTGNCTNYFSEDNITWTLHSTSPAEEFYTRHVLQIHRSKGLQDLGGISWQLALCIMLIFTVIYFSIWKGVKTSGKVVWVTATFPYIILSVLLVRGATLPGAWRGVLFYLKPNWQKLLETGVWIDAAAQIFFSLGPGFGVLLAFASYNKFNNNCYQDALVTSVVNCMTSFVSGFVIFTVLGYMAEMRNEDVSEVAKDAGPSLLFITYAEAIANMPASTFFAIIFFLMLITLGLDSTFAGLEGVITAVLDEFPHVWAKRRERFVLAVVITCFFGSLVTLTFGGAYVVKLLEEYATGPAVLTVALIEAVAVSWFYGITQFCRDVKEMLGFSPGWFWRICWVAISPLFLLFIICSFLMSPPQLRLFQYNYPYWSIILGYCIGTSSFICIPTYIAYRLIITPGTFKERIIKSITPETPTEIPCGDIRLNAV

SMILES	Ki [1]	Ki [2]	Kb (Histamine H3 receptor)	Activity (Mus musculus [3])	Activity (Mus musculus [4])
CSc1ccc(C2CN(C)Cc3cc(Oc4cncc(CN5CCCCC5)c4)ccc32)cc1 (centres undefined)	0.0083 µM	0.0097 µM			
CSc1ccc(C2CN(C)Cc3cc(Oc4nc(CN5CCOCC5)cs4)ccc32)cc1 (centres undefined)	0.0155 µM	0.014 µM			
CSc1ccc(C2CN(C)Cc3cc(Oc4nc(CN5CCCCC5)cs4)ccc32)cc1 (centres undefined)			0.02 µM		
CSc1ccc(C2CN(C)Cc3cc(Oc4ccc(CN5CCCCC5)cn4)ccc32)cc1 (centres undefined)			0.02 µM	272%	inactive
CN(C)CCC(Oc1ccccc1)c1ccc(OCCCN2CCCCC2)cc1 (centres undefined)	0.0257 µM				
